Test results taken from patent US11512042B2, “Enamine compounds for absorbance of electromagnetic energy” (Commonwealth Scientific and Industrial Research Organisation, priority 2015, dated 2022).
Several values for one entry are separate records, joined by “and”; a condition that tells them apart may be missing. Identical values can stand only once. Entries after “also recorded” stand apart in the source; their conditions may differ.

Tests used:
Assay type in all cases: physicochemical
[1] = Lens casting in NK ester lens formulation; settings: AIBN initiator, cured 70° C. 18 hours, 0.1 wt %
Method: (§1) Two lens formulations were used. The first (CR-39) was composed of Di(ethylene glycol) bis(allylcarbonate) with 3% wt benzoyl peroxide as initiator. The second lens formulation (NK) was made up of 4 parts NK Ester BPE 100N (Ethoxylated Bisphenol A dimethacrylate) to 1 part NK Ester 9G (PEG 400 dimethacrylate) with 0.4 wt % AIBN as initiator.
(§2) Once the glue had dried the lens matrix (3 g of the lens matrix was treated with 3 mg of absorber, 0.1 wt % and stirred until dissolution complete. 3 g of the matrix was sufficient to prepare 3-4 lenses) was added via pipette to the interior until a convex meniscus was formed at the top of the O-ring. The mixture was then left to settle for 15 minutes during which time any bubbles formed were dispersed. A second microscope slide was then slowly rolled on top of the first to form a seal and expel any air. Taking care to maintain pressure the lens mould was then clamped at the sides with two “Bulldog” clips and cured in an oven at 70° C. for 18 hours. Once the curing process was complete the two microscope slides were separated and the lens removed from the O-ring before washing with acetone and drying/polishing with a soft tissue. The lenses thus formed were approximately 2 mm thick and 15 mm in diameter.

[2] = PMMA film in QUV Weatherometer; settings: type A bulbs, 70° C. 8 hours then dark humid 50° C. 4 h
Method: In order to gauge longer term photostability, the PMMA film samples were evaluated in a QUV Weatherometer using type A bulbs with solar irradiance at 70° C. for 8 hours followed by heating in the dark under a humid atmosphere at 50° C. for 4 h. The film was then sandwiched between 2 glass slides to prevent deformation and irradiated. The samples were evaluated by a visual comparison and measurement of transmittance spectra. […] This clearly indicates the suitability of compounds of the first aspect to incorporation into polymeric matrices and films. The relevant transmission spectra are shown in FIG. 11 (142), FIG. 12 (143), FIG. 13 (164), FIG. 14 (213) and FIG. 15 (215) wherein in all of these figures the lower plateau line represents the result following radiation and the upper line prior to irradiation.

[3] = Photostability protocol: thin film irradiated with xenon arc lamp; settings: 1 hour xenon arc lamp; for Photostability: ratio of absorbance at λmax irradiated vs unirradiated, ^a = average of multiple measurements
Procedure, shortened: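 A 3% solution in EtOH/triglyceride/alkyl benzoate is dried on glass slides into a liquid film of 1.5 mg compound. Films are irradiated 1 h with a Pyrex-filtered 150 W xenon arc lamp (about 100 MED, below 30° C). Washings are read by UV; stability is absorbance at λmax relative to unirradiated film.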

[4] = Lens casting in CR-39 lens formulation; settings: benzoyl peroxide initiator, cured 70° C. 18 hours, 0.1 wt %
Method: as §1, §2
Of particular interest are compounds 163 and 164 which show an increase in λmax on constraining only the nitrogen substituent in a ring i.e. not the double bond. […] Additionally the dimethyl analogue 213 (structure in table 14) was also evaluated.

[5] = UV absorbance spectrum in solution (λmax, λcrit, extinction coefficients); settings: for λcrit: critical wavelength; for E (1%, 1 cm): mass extinction coefficient; for ε: molar extinction coefficient, in M-1 cm-1 (unit assumed)
Procedure, shortened: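 Spectra taken on 0.001% solutions in methanol, 10 mm path. Breakthrough is the wavelength where transmittance rises above 1%; steepness is the nm span over which transmittance goes from 1 to 80%.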

[6] = % transmission spectrum of 0.1% solution (breakthrough, steepness); settings: for Steepness: distance in nm over which transmittance increases from 1 to 80%; for Breakthrough (1% T at 0.1%): value in nm where transmittance increases beyond 1%, 0.1% solution
Procedure, shortened: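 Transmission was recorded for 0.1% methanol solutions in a 2 mm cuvette. Breakthrough is the wavelength (nm) at which transmittance exceeds 1%; steepness is the nm span over which transmittance rises from 1 to 80%. Some values are averages of multiple measurements.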

| Stability to lens casting conditions [1] | Photostability (% remains) [3] | Photostability [3] | λmax [5] [nm] | λcrit [5] [nm] | E (1%, 1 cm) [5] | ε [5] | Steepness [6] [nm] | Breakthrough (1% T at 0.1%) [6] [nm] | SMILES | Longer term photostability in PMMA film [2] | Stability to lens casting conditions [4] |
| --- | --- | --- | --- | --- | --- | --- | --- | --- | --- | --- | --- |
| very little if any decomposition | 91% and 99% | 99% |  |  |  |  |  |  | CCN(/C=C(\C(=O)C(F)(F)F)c1ccccc1)c1ccccc1 [Compound 142, 4-(ethyl(phenyl)amino)-1,1,1-trifluoro-3-phenylbut-3-en-2-one] | little sign of decomposition after irradiation | stable enough for such incorporation; also recorded: very little if any decomposition |
|  |  |  | 366 | 389 | 860 | 29690 | 22 | 413 | CC1(C)CN(/C=C(\C(=O)C(F)(F)F)c2ccccc2)c2ccccc21 [Compound 213] | little sign of decomposition after irradiation | stable enough for such incorporation; also recorded: good stability to the lens curing conditions |
|  | 85% |  | 374 | 391 | 1067 | 50515 |  |  | CCCCC(CC)COC(=O)c1ccc2c(c1)CCN2/C=C(\C(=O)C(F)(F)F)c1ccccc1 (stereo not shown) [Compound 215] | little sign of decomposition after irradiation |  |
|  |  | 90% and 92% | 365 | 384 | 1023 | 75535 | 19 | 401 | CC(C)(C)C(=O)/C(=C/N1CCc2cc(C(=O)OCCCOC(=O)c3ccc4c(c3)CCN4/C=C(/C(=O)C(C)(C)C)c3ccccc3)ccc21)c1ccccc1 [Compound 304] |  |  |
|  |  | 80% and 75% | 375 | 391 | 1078 | 48709 | 23 | 417 | COC(=O)c1ccc2c(c1)CCN2/C=C(/C(=O)C(=O)N1CCc2ccccc21)c1ccccc1 [Compound 305] |  |  |
|  |  | 98, 98% | 370 | 384 | 1251 | 107885 | 22 | 402 | Cc1cc(C)c(C(=O)/C(=C\N2CCc3cc(C(=O)OCCCOC(=O)c4ccc5c(c4)CCN5/C=C(/C(=O)c4c(C)cc(C)cc4C)c4ccccc4)ccc32)c2ccccc2)c(C)c1 [Compound 307] |  |  |
|  |  | 79% | 374 | 391 | 796 | 38378 | 41 | 431 | CCCCC(CC)COC(=O)c1ccc2c(c1)CCN2/C=C(/C(=O)c1ccncc1)c1ccccc1 (stereo not shown) [Compound 308] |  |  |
|  |  | 80% | 366 | 384 | 780 | 42050 | 19 | 397 | CCCCC(CC)COC(=O)c1ccc2c(c1)CCN2/C=C(/C(=O)C(C)(C)C)c1ccc(Br)cc1 (stereo not shown) [Compound 309] |  |  |
|  |  | 78% and 81% | 368 | 385 | 1039 | 50502 | 22 | 402 | CCCCC(CC)COC(=O)c1ccc2c(c1)CCN2/C=C(/C(=O)C(C)(C)C)c1ccc(C#N)cc1 (stereo not shown) [Compound 310] |  |  |
